In patent US20230146239A1 (THE SCRIPPS RESEARCH INSTITUTE, priority 2020, published 2023):
Values after ≈ are worked out from the molar mass of the structure shown. Read-outs that look alike come from different tables or passages of the source.

Experiments:
[1] = system: VanB E. faecalis ATCC 51299; experiment: microbe, parasite or virus in culture; format: cell-based, Enterococcus faecalis; settings: for MIC: Enterococcus faecalis, ATCC51299, read-out: MIC, VanB E. faecalis ATCC 51299
Description: (§2) The lowest concentration of antibiotic (in μg/mL) capable of eliminating cell growth in the wells is the reported MIC value.

[2] = system: Sensitive S. aureus ATCC 25923; experiment: In vitro antimicrobial microdilution assay (MIC); format: cell-based, Staphylococcus aureus
Description: as §2

[3] = system: MRSA S. aureus ATCC 43300; experiment: microbe, parasite or virus in culture; format: cell-based, Staphylococcus aureus; settings: for MIC: Staphylococcus aureus, read-out: MIC, MRSA S. aureus ATCC 43300
Description: as §2

[4] = system: VanA VRE E. faecalis (BM 4166); experiment: Impact of added LTA, phosphate, POPE on antimicrobial activity (MIC); format: cell-based, Enterococcus faecalis; settings: for decrease of antimicrobial activity by added LTA: 100 μg/mL LTA, both VanA VRE strains
Description: (§1) When NaH2PO4 or POPE was used instead of LTA, 10% brain-heart infusion broth containing 0.002% Tween®-80 with 100 μg/mL NaH2PO4 or 100 μg/mL POPE was used as the culture medium used for serial dilution. When additional G3 (H2N^+(CH2)3NHC(NH2)═NH2^+.2TFA) or Mg^2+ was used, 10% brain-heart infusion broth containing 0.002% Tween®-80 with 100 μg/mL G3 or 100 μg/mL MgCl2 and 100 μg/mL lipoteichoic acid was used as the culture medium for serial dilution of study group, 10% brain-heart infusion broth containing 0.002% Tween®-80 with 100 μg/mL G3 was used as the culture medium for serial dilution of control group.

[5] = system: VanA VRE E. faecium (ATCC BAA2317); experiment: organism not typed; format: cell-based, Enterococcus faecium
Description: as §1

[6] = system: VanA VRE E. faecalis BM 4166 and E. faecium ATCC BAA-2317; format: cell-based, Enterococcus faecalis, Enterococcus faecium; settings: 10 μM added at 5 minutes
Description: The above bacterial solution was subjected to a subculture to obtain fresh mid-log phase bacterial cells (incubation time=6 hours). The bacterial suspension was diluted to a total volume of 7 mL with OD600=0.6.
After the cultured bacteria were harvested (3000 rpm, 4° C., 20 minutes), the white bacterial precipitate was washed and resuspended in 5 mM glucose and 5 mM HEPES buffer (1:1, 5.00 mL, pH=7.2).

[7] = system: VanA E. faecalis (BM 4166); experiment: In vitro antimicrobial microdilution assay (MIC); format: cell-based, Enterococcus faecalis
Description: as §2

[8] = system: VanA E. faecium (ATCC BAA-2317); experiment: In vitro antimicrobial microdilution assay (MIC); format: cell-based, Enterococcus faecium
Description: as §2

[9] = system: VanA E. faecalis (ATCC BAA-2573); experiment: In vitro antimicrobial microdilution assay (MIC); format: cell-based, Enterococcus faecalis
Description: as §2

VanA E. faecium (TX2465) = experiment: In vitro antimicrobial microdilution assay (MIC); format: cell-based, Enterococcus faecium
Description: as §2

VanA VRE, 4 strains = experiment: Antimicrobial activity against VanA VRE panel (4 strains), summarised in text; format: cell-based, Enterococcus faecalis, Enterococcus faecium
Description: as §2

[10] = system: VanA E. faecalis BM 4166 or ATCC BAA-2573; experiment: microbe, parasite or virus in culture; format: cell-based; settings: Enterococcus faecalis, ATCCBAA2573, read-out: MIC, VanA E. faecalis
Description: as §2

[11] = Mouse pharmacokinetics, iv; settings: 10 mg/kg
Description: Plasma was obtained by centrifugation using a microcentrifuge fit with a hematocrit rotor, and obtained plasma was immediately frozen. The use of micro-sampling blood collection reduces the total blood taken from the mouse and allows a single mouse to be used for the entire time course, reducing inter-individual variability and maintaining the health of the mouse.
Drug levels were determined by mass spectrometry using an ABSciex 5500 mass spectrometer using multiple reaction monitoring. […] All PK work was conducted in the Scripps Florida vivarium which is fully AAALAC accredited. Procedures were approved by the Scripps Florida IACUC, protocol number 15-022.

[12] = system: VanA VRE E. faecalis BM 4166 and E. faecium ATCC BAA-2317; settings: previously reported; C1-vancomycin even at 100 μM; cited from earlier work
[13] = mice, earlier studies; cited from earlier work
[14] = mice, cited from earlier work; for terminal half-life (t1/2): earlier studies; for AUC / CL / Cmax / Vd / t1/2 / tmax: iv, earlier study
[15] = system: VanA VRSA strain VRS2 (S. aureus); settings: mouse, in vivo; cited from earlier work
[16] = Enterococcus faecium, ATCCBAA2317, read-out: MIC, VanA E. faecium ATCC BAA-2317
[17] = 10 mg/kg, listed as C1-CBP-vancomycin (4)

SMILES: CN[C@H](CC(C)C)C(=O)N[C@H]1C(=O)N[C@@H](CC(N)=O)C(=O)N[C@H]2C(=O)N[C@H]3C(=O)N[C@H](C(=O)N[C@H](C(=O)NCc4ccc(NC(=N)N)cc4)c4cc(O)cc(O)c4-c4cc3ccc4O)[C@H](O)c3ccc(c(Cl)c3)Oc3cc2cc(c3OC2OC(CO)C(O)[C@H](O)C2O[C@H]2CC(C)(NCc3ccc(-c4ccc(Cl)cc4)cc3)[C@H](O)[C@H](C)O2)Oc2ccc(cc2Cl)[C@H]1O (some centres unmarked) [Compound 19, GBn-CBP-vancomycin]
- MIC [1]: 0.04 µg/mL (≈ 0.0223 µM)
- MIC ([2]; Staphylococcus aureus, ATCC25923; read-out: MIC, Sensitive S. aureus ATCC 25923): 0.04 µg/mL (≈ 0.0223 µM)
- MIC [3]: 0.02 µg/mL (≈ 0.0111 µM)
- decrease of antimicrobial activity by added LTA [4]: 8 fold
- MIC ([4]; read-out: MIC, +LTA): 5 µg/mL (≈ 2.78 µM)
- MIC ([4]; read-out: MIC, −LTA): 0.6 µg/mL (≈ 0.334 µM)
- MIC ([5]; read-out: MIC, +LTA): 2.5 µg/mL (≈ 1.39 µM)
- MIC ([5]; read-out: MIC, −LTA): 0.3 µg/mL (≈ 0.167 µM)
- bacterial cell membrane permeabilization [6]: strong membrane permeabilization

SMILES: CN[C@H](CC(C)C)C(=O)N[C@H]1C(=O)N[C@@H](CC(N)=O)C(=O)N[C@H]2C(=O)NC3C(=O)N[C@H](C(=O)N[C@H](C(=O)NCc4ccc(NC(=N)N)cc4)c4cc(O)cc(O)c4-c4cc3ccc4O)[C@H](O)c3ccc(c(Cl)c3)Oc3cc2cc(c3OC2OC(CO)C(O)[C@H](O)[C@@H]2O[C@H]2CC(C)(N)[C@H](O)[C@H](C)O2)Oc2ccc(cc2Cl)[C@H]1O (some centres unmarked) [Compound 9, GBn-vancomycin]
- MIC, VanA E. faecalis BM 4166 [7]: 16 µg/mL (≈ 10 µM)
- MIC, VanA E. faecium ATCC BAA-2317 [8]: 4 µg/mL (≈ 2.51 µM)
- MIC, VanA E. faecalis ATCC BAA-2573 [9]: 4 µg/mL (≈ 2.51 µM)
- MIC, VanA E. faecium TX2465 (VanA E. faecium (TX2465)): 8 µg/mL (≈ 5.01 µM)
- MIC, VanB E. faecalis ATCC 51299 [1]: 8 µg/mL (≈ 5.01 µM)
- MIC, Sensitive S. aureus ATCC 25923 [2]: 0.25 µg/mL (≈ 0.157 µM)
- MIC, MRSA S. aureus ATCC 43300 [3]: 0.12 µg/mL (≈ 0.0752 µM)
- MIC, +LTA ([4]; E. faecalis BM 4166, LTA 100 μg/mL): 16 µg/mL (≈ 10 µM)
- MIC, −LTA ([4]; E. faecalis BM 4166, no LTA): 16 µg/mL (≈ 10 µM)
- MIC, +LTA ([5]; E. faecium ATCC BAA-2317, LTA 100 μg/mL): 4 µg/mL (≈ 2.51 µM)
- MIC, −LTA ([5]; E. faecium ATCC BAA-2317, no LTA (0 μg/mL)): 4 µg/mL (≈ 2.51 µM)

SMILES: CN[C@H](CC(C)C)C(=O)N[C@H]1C(=O)N[C@@H](CC(N)=O)C(=O)N[C@H]2C(=O)NC3C(=O)N[C@H](C(=O)N[C@H](C(=O)NCCC[N+](C)(C)C)c4cc(O)cc(O)c4-c4cc3ccc4O)[C@H](O)c3ccc(c(Cl)c3)Oc3cc2cc(c3OC2OC(CO)C(O)[C@H](O)[C@@H]2O[C@H]2CC(C)(NCc3ccc(-c4ccc(Cl)cc4)cc3)[C@H](O)[C@H](C)O2)Oc2ccc(cc2Cl)[C@H]1O (single isomer, unassigned) [Compound 4, C1-CBP-vancomycin]
- MIC [8, 16]: 0.5 µg/mL
- more potent than vancomycin (VanA VRE, 4 strains): about 1000 fold
- MIC [10]: 0.25 µg/mL
- AUC ([11]; female, CD-1, mouse, in vivo): 48400 ng·h/mL
- Cmax ([11]; female, CD-1, mouse, in vivo): 14.5 µg/mL
- Vd ([11]; female, CD-1, mouse, in vivo): 0.64 L/kg
- clearance ([11]; female, CD-1, mouse, in vivo): 2 mL/min/kg
- half-life ([11]; female, CD-1, mouse, in vivo): 306 min
- tmax ([11]; female, CD-1, mouse, in vivo): 4.8 min
- MRTlNF—obs ([11]; mice): 336 min
- Vd ([11]; mice, this study): (0.64) L/kg
- bacterial cell membrane permeabilization [12]: pronounced membrane permeabilization
- MTD [13]: 50 mg/kg
- terminal half-life (t1/2) [14]: 300 min
- AUC [14, 17]: 81100 ng·h/mL
- CL [14, 17]: 2 mL/min/kg
- Cmax [14, 17]: 14.1 µg/mL
- Vd [14, 17]: 1.25 L/kg
- t1/2 [14, 17]: 420 min
- tmax [14, 17]: 30 min
- AUC ([14]; 50 mg/kg): 430000 ng·h/mL
- CL ([14]; 50 mg/kg): 2 mL/min/kg
- Cmax ([14]; 50 mg/kg): 58.9 µg/mL
- Vd ([14]; 50 mg/kg): 1.04 L/kg
- t1/2 ([14]; 50 mg/kg): 372 min

SMILES: CN[C@H](CC(C)C)C(=O)N[C@H]1C(=O)N[C@@H](CC(N)=O)C(=O)N[C@H]2C(=O)N[C@H]3C(=O)N[C@H](C(=O)N[C@H](C(=O)O)c4cc(O)cc(O)c4-c4cc3ccc4O)[C@H](O)c3ccc(c(Cl)c3)Oc3cc2cc(c3O[C@@H]2O[C@H](CO)[C@@H](O)[C@H](O)[C@H]2O[C@H]2C[C@](C)(N)[C@H](O)[C@H](C)O2)Oc2ccc(cc2Cl)[C@H]1O [Compound 1, vancomycin]
- MIC ([7]; Enterococcus faecalis, read-out: MIC, VanA E. faecalis BM 4166): 250 µg/mL (≈ 173 µM)
- MIC [8, 16]: 250 µg/mL (≈ 173 µM)
- MIC ([9]; Enterococcus faecalis, ATCCBAA2573, read-out: MIC, VanA E. faecalis ATCC BAA-2573): 125 µg/mL (≈ 86.3 µM)
- MIC (VanA E. faecium (TX2465)): 250 µg/mL (≈ 173 µM)
- MIC (VanA E. faecium (TX2465); Enterococcus faecium, read-out: MIC, VanA E. faecium TX2465): 250 µg/mL (≈ 173 µM)
- MIC [1]: 8 µg/mL (≈ 5.52 µM)
- MIC ([2]; Staphylococcus aureus, ATCC25923, read-out: MIC, Sensitive S. aureus ATCC 25923): 0.5 µg/mL (≈ 0.345 µM)
- MIC [3]: 0.5 µg/mL (≈ 0.345 µM)
- decrease of antimicrobial activity by added LTA [4]: no difference
- MIC ([4]; read-out: MIC, +LTA): 250 µg/mL (≈ 173 µM)
- MIC ([4]; read-out: MIC, −LTA): 250 µg/mL (≈ 173 µM)
- MIC ([5]; read-out: MIC, +LTA): 250 µg/mL (≈ 173 µM)
- MIC ([5]; read-out: MIC, −LTA): 250 µg/mL (≈ 173 µM)
- MIC [10]: 250 µg/mL (≈ 173 µM)
- bacterial cell membrane permeabilization [6]: no permeabilization
- activity in the VRSA thigh infection model [15]: inactive
- MTD [13]: 300 mg/kg
- terminal half-life (t1/2) [14]: 30 to 78 min
- AUC ([14]; 10 mg/kg): 21800 ng·h/mL
- CL ([14]; 10 mg/kg): 7.67 mL/min/kg
- Cmax ([14]; 10 mg/kg): 62.8 µg/mL
- Vd ([14]; 10 mg/kg): 0.34 L/kg
- t1/2 ([14]; 10 mg/kg): 31.2 min
- tmax ([14]; 10 mg/kg): 4.98 min
- AUC ([14]; 300 mg/kg): 935000 ng·h/mL
- CL ([14]; 300 mg/kg): 5.33 mL/min/kg
- Cmax ([14]; 300 mg/kg): 1665 µg/mL
- Vd ([14]; 300 mg/kg): 0.62 L/kg
- t1/2 ([14]; 300 mg/kg): 81 min
- tmax ([14]; 300 mg/kg): 4.98 min

SMILES: CN[C@H](CC(C)C)C(=O)N[C@H]1C(=O)N[C@@H](CC(N)=O)C(=O)N[C@H]2C(=O)N[C@H]3C(=O)N[C@H](C(=O)N[C@H](C(=O)O)c4cc(O)c(CN[C@@H](CCCNC(=N)N)C(=O)OC)c(O)c4-c4cc3ccc4O)[C@H](O)c3ccc(c(Cl)c3)Oc3cc2cc(c3OC2OC(CO)C(O)[C@H](O)C2O[C@H]2CC(C)(N)[C@H](O)[C@H](C)O2)Oc2ccc(cc2Cl)[C@H]1O (some centres unmarked) [Compound 27, Arg(OMe)^Ar-vancomycin]
- MIC ([7]; Enterococcus faecalis; read-out: MIC, VanA E. faecalis BM 4166): 31 µg/mL (≈ 18.8 µM)
- MIC ([8]; Enterococcus faecium, ATCCBAA2317; read-out: MIC, VanA E. faecium ATCC BAA-2317): 8 µg/mL (≈ 4.85 µM)
- MIC ([9]; Enterococcus faecalis, ATCCBAA2573; read-out: MIC, VanA E. faecalis ATCC BAA-2573): 16 µg/mL (≈ 9.7 µM)
- MIC (VanA E. faecium (TX2465); Enterococcus faecium; read-out: MIC, VanA E. faecium TX2465): 63 µg/mL (≈ 38.2 µM)
- less potent compared with Arg(OMe)-vancomycin (Compound 10) (VanA VRE, 4 strains; resistant organisms): ≤ 8 fold
